# Laboratory results taken from US20250281465A1, “MOLECULES THAT ENHANCE EXTRACELLULAR VESICLE RELEASE” (priority 2022, published 2025).
# Key:
# C57BL/6 mice = test: In vivo adjuvanticity with ovalbumin as model antigen; design: species or system mouse; conditions: OVA 20 μg + compound 200 nmol i.m. days 0 and 21, day 28
# Protocol: FIGS. 1A-1D. Intracellular Ca^2+ influx screening of 84 HTS hit candidate compounds. (A) THP-1 cells were loaded with the ratiometric Ca^2+ indicator, Fura-2, and treated with lonomycin (ION, 1 μM), Thapsigargin (1 μM), or 84 hit candidate compounds (10 μM) for 25 minutes. Data are presented as the area under the curve (AUG) of OD340/380 ratios corresponding to the intracellular Ca^2+ kinetics. The baseline-subtracted AUG was calculated using GraphPad Prism (GraphPad Software, San Diego, CA). (B) Ca^2+ mobilization by compound #634. mBMDCs were loaded with the ratiometric Ca^2+ indicator, Fura-8, and treated with ION (1 μM), or #634 (2 and 10 μM) for 25 minutes. The dashed line indicates the timing of compounds added. […] OVA-specific IgGI and IgG2c levels in sera were determined by ELISA. **p<0.01, ***p<0.001, ns (not significant) by KruskalWallis tests with Dunn's post hoc test vs. Veh. […]
# Eighty-four hit candidate compounds were also screened for in vivo adjuvant activities using C57BL/6 mice and model antigen ovalbumin (OVA). […] Sera were collected on day 28, and OVA-specific immunoglobulins IgG1 and IgG2c were determined by ELISA (FIG. 1D).
# The selected 80 compounds were first evaluated for purity and identity by HPLC-MS and compounds which were less than 90% pure were purified by Prep-HPLC. These were then evaluated for vaccine adjuvant activity in mice using a model antigen, ovalbumin (OVA). […]
# mBMDCs = test: Costimulatory molecule expression on mBMDCs (flow cytometry); type: cell-based, mouse; conditions: 634 10 μM, ION 1 μM, MPLA 1 μg/mL overnight, vs Veh
# Protocol: FIGS. 26A-26D. Flow cytometric analysis for costimulatory molecules on mBMDCs. For costimulatory molecules on mBMDCs, mBMDCs (10^6 cells/mL) were incubated with 634 (10 μM), ION (1 μM), and MPLA (1 μg/mL) for 20-24 hours. 0.5% DMSO was used as a vehicle. After removing the supernatant, cells were washed with the stain buffer and incubated with anti-mouse CD16/32 antibody for blocking FcR. Cells were stained with an antibody cocktail with anti-CD86 (A), anti-CD80 (B), anti-MHC class II (C), and anti-CD40 (D) antibodies for 30 minutes at 4° C. Cells were then washed and stained with DAPI (4′,6-diamino-2phenylindole) for 10 minutes at room temperature to exclude dead cells (DAPI^high) from the analysis. Data were acquired using MACSQuant Analyzer 10 (Miltenyi Biotec, Germany) and analyzed with FlowJo (version 10.8.1).
# mBMDCs (10^5 cells/200 μL/well) were treated with a test compound (10 μM) or Veh (0.5% DMSO) overnight and then the costimulatory molecule expression on mBMDCs was evaluated using flow cytometry. The cells were stained with antibodies for CD11c, CD80, CD83, CD86, CD40, and MHC class II. Dead cells (DAPI high) were excluded from the analysis. Percent positive population of CD80, CD83, CD86, CD40, or MHC class II in the gated CD11c population were analyzed.
# Costimulatory Molecule Expression Analysis. mBMDCs (10^6 cells/mL) were incubated with 10 μM compound, 1 μM lonomycin and 1 μg/mL MPLA for 20 to 24 hours. 0.5% DMSO was used as vehicle. Cells were incubated with anti-mouse CD16/32 antibody for blocking FcR and stained with anti-CD11c, anti-CD40, […], anti-CD83, […], or anti-MHC class II antibodies for 30 minutes at 4° C. Cells were stained with 4′,6-diamino-2-phenylindole (DAPI) for 10 minutes at RT. Data were acquired using MACSQuant Analyzer 10 (Miltenyi Biotec, Germany) and analyzed with FlowJo (version 10.8.1, Becton Dickinson, Ashland, OR)).
Compound,Anti-OVA IgG1 level in sera (C57BL/6 mice),Anti-OVA IgG2c level in sera (C57BL/6 mice),CD80 expression on mBMDCs (mBMDCs),CD86 expression on mBMDCs (mBMDCs)
"CCOC(=O)c1c(NS(=O)(=O)c2cccc3c2N=S=N3)sc(C)c1C [#634, ethyl 2-(benzo[c][1,2,5]thiadiazole-4-sulfonamido)-4,5-dimethylthiophene-3-carboxylate]","appeared to be higher than the levels from animals immunized without adjuvant, although there were no significant differences","appeared to be higher than the levels from animals immunized without adjuvant, although there were no significant differences",–,–
"CCOC(=O)c1c(NS(=O)(=O)c2cccc3nsnc23)sc(C)c1C [compound 634, Ethyl 2-(benzo[c][1,2,5]thiadiazole-4-sulfonamido)-4,5-dimethylthiophene-3-carboxylate]",–,–,increased CD86 and CD80 expression on mBMDCs,increased CD86 and CD80 expression on mBMDCs
